Test results taken from US20210121440A1, “ACNE TREATMENT” (priority 2003, published 2021).

Experiments:
[1] = system: patients having acne papulopustolosa; test: Clinical judgement of number of lesions and degree of severity index (Allen and Smith) in acne patients treated orally; format: in vivo, human
Experimental: (§1) For treating the inflammatory acne 10 patients having acne papulopustolosa (m:f 6:4, age 19±5 years) were treated orally with a selective 5-lipoxygenase inhibitor, namely with (±)-1-1.benzo[b]thien—2-ylethyl)-1-hydroxyurea (Zileuton) 4×600 mg/d p.o. for a period of three months. The number of lesions and the general degree of severity index according to Allen and […] (Allen B S, Smith J G: Various parameters for grading acne. Arch Dermatol. 1982; 118: 23-25) were clinically judged. Moreover, the surface lipids using Sebumeter® and the liver enzymes in the serum were determined at the beginning of the study, in the 2nd, 4th, 8th and 12th weeks of treatment and 2 weeks after completion of the therapy. The LTB4 detection in the blood by radio-immuno-assay and the lipid fractions in the serum by chromatography were examined at the beginning and in the 12th week of treatment. The patients were photographed at the beginning and at the end of the treatment. The degree of severity index of acne decreased continuously and dependent on the time (41±28% of the initial value in the 12th week of treatment; p<0.05). […] The degree of clinical improvement strongly correlated with the reduction of the total lipids in the sebum (p=0.0009, r^2=0.81) and the free fatty acid (p=0.0003, r^2=0.82). […] To sum up, thus first indirect proofs could be furnished for a genuine inflammatory etiology of acne.

[2] = system: total lipids and pro-inflammatory lipid fractions in the sebum; test: Lipids and lipid fractions in the sebum by chromatography; format: in vivo, human; conditions: 12th week of treatment, 4×600 mg/d p.o.
Experimental: as §1

LTB4 in the blood = test: LTB4 detection in the blood by radio-immuno-assay; format: in vivo, human; conditions: beginning vs 12th week of treatment; 4×600 mg/d p.o.
Experimental: as §1

surface lipids = test: Surface lipids using Sebumeter; format: in vivo, human; conditions: 4×600 mg/d p.o. for three months
Experimental: as §1

[3] = system: patients having acne papulopustolosa; test: Side-effects in treated acne patients; format: in vivo, human; conditions: 4×600 mg/d p.o. for three months; 10 patients
Experimental: as §1, with “of acne. […]” for “of acne.”

patients = conditions: oral administration; especially older patients having an impaired renal function; cited from earlier work

Row | Compound | response of comedones ([1]; 4×600 mg/d p.o. for three months) | decrease of the number of inflammatory lesions up to ([1]; 4×600 mg/d p.o. for three months, p<0.01) | degree of severity index of acne, % of the initial value ([1]; 12th week of treatment, 4×600 mg/d p.o., 10 patients, p<0.05) | all examined parameters during follow-up ([1]; two-weeks' follow-up phase after completion of the therapy) | decrease of lipoperoxides in the sebum [2] | decrease of pro-inflammatory free fatty acids in the sebum [2] | decrease of total lipids in the sebum ([2]; p<0.05) | LTB4 in the blood (LTB4 in the blood) | surface lipids (surface lipids) | subjective and objective side-effects [3] | disadvantageous effects observed in clinical tests (patients)
1 | CC(c1cc2ccccc2s1)N(O)C(N)=O (racemic) [Zileuton, (±)-1-(1-benzo[b]thien-2-ylethyl)-1-hydroxy-urea] | comedones did not respond | 29±24% | 41±28% | remained practically unchanged | 26±30% | 22±18% | 35±51% | not influenced | not influenced | Neither subjective nor objective side-effects were noticed | 
2 | CC(C(=O)O)c1ccc2oc(-c3ccc(Cl)cc3)nc2c1 (centres unmarked) [benoxaprofen] |  |  |  |  |  |  |  |  |  |  | a photosensitivity, exzema, milii, onycholysis and a hepatotoxicity with jaundice
